Values of other authors, collected in US11827443B2, “Aerosol foam dispenser” (The Procter & Gamble Company, priority 2021, dated 2023).

details: in water at 20° C.

| SMILES | Water solubility at 20° C. (weight percent) |
| --- | --- |
| COC [Dimethyl ether] | 7% weight percent |
| [He] [Helium] | <0.01 weight percent |
| O=C=O [Carbon dioxide] | 0.8% weight percent |
| CC(C)C [Isobutane] | <0.01% weight percent |
| CCCC [Butane] | <0.01% weight percent |
| [N-]=[N+]=O [Nitrous oxide] | 0.12 weight percent |
